The values below come from patent US20240066057A1, “METHOD FOR TREATING PAIN USING VANADIUM COMPOUNDS” (HUNAN FANGSHENGTAI MEDICAL TECHNOLOGY CO., LTD, priority 2020, published 2024).

The subject of test [1] is Kunming mice with CFA-induced inflammation. The test can be described thus: Von Frey test (50% paw withdrawal threshold) in CFA-induced inflammatory pain mouse model. The test is classed as in vivo. As to the method: 10 μL of complete Freund's adjuvant (CFA) was injected into the left hind foot of mice (♂ Kunming mice, 22 g to 40 g) to induce inflammation. 24 hours after the injection, a Von Frey test was performed to determine a pain threshold. That is, under the guidance of Dixon's Up-Down method, Von Frey fibers were used to induce the mechanical paw withdrawal of the mice, and data were collected and calculated to obtain their 50% paw withdrawal thresholds (paw withdrawal threshold or PWT for short, i.e. pain threshold). Mice were then divided into different groups, including a normal saline group, a positive control group, and a drug group, which were intraperitoneally injected with normal saline, an aspirin (acetylsalicylic acid, or ASA) solution and a solution of compound for testing respectively. A Von Frey test was then performed to monitor changes in pain threshold.
Mice were divided into three groups: a blank control group, an aspirin (ASA) group, and a drug group. In blank control group, the mice were given normal saline, deionized water or deionized water containing ≤5% DMSO at the same volume as that in the drug group. In ASA group, the mice were given the known analgesic drug ASA as the positive control for tested compounds. In drug group, the mice were given compounds for testing accordingly. Due attention was paid to observe whether the pain threshold rose, the period during which the rise was maintained and the magnitude of the rise, after the injection of a tested compound solution.

Test [2] deals with mice that suffered from pain due to induced inflammation. The following applies: intrathecal injection, inflammatory pain; cited from earlier work.
Test [3] concerns Kunming mice with CFA-induced inflammation. The test can be described thus: Effective concentration and plateau experiment of vanadium compounds, tail vein injection, mouse pain model. The test is classed as in vivo.
For test [4] the test system is unchanged. The test can be described thus: Von Frey test (50% paw withdrawal threshold) in CFA-induced inflammatory pain mouse model. The test is classed as in vivo. The following applies: Example 10; G1 injected through the tail vein 0.49 mg/kg (atomic mass of vanadium); ASA group as control.
[5] abbreviates: Plateau experiment, dose (vanadium) A5/G3 0.25, A1/G1/H1 0.49, A4/G2/H2 0.97, H3 1.9 mg/kg, 6 samples, listed as G1.
Setting [6] is: Example 3, intraperitoneal injection, A1 0.97 mg/kg (atomic mass of vanadium), S about 250 mg/kg.
Setting [7] is: Example 5, intraperitoneal injection, C 1.9 mg/kg (atomic mass of vanadium), S about 250 mg/kg.
[8] abbreviates: Example 6, intraperitoneal injection, D 1.9 mg/kg, S about 250 mg/kg.
The mark [9] stands for this setting: Example 7, intraperitoneal injection, B 0.97 mg/kg (atomic mass of vanadium), S about 250 mg/kg.
Setting [10] is: Example 8, intraperitoneal injection, E 0.97 mg/kg (atomic mass of vanadium), ASA about 250 mg/kg.
The mark [11] stands for this setting: Example 9, intraperitoneal injection, F 0.97 mg/kg (atomic mass of vanadium), ASA about 250 mg/kg.
Where [12] appears, read: Example 11 (BEOV), intraperitoneal injection, I about 0.97 mg/kg (atomic mass of vanadium).
Setting [13] is: Example 11 (BMOV), intraperitoneal injection, H1 about 0.97 mg/kg (atomic mass of vanadium).
[14] abbreviates: Example 12, intraperitoneal injection, J about 0.97 mg/kg (atomic mass of vanadium).
Where [15] appears, read: Example 13, intraperitoneal injection, K about 0.97 mg/kg (atomic mass of vanadium).
[16] abbreviates: Example 14, intraperitoneal injection, L about 0.97 mg/kg (atomic mass of vanadium).
Setting [17] is: Example 15, intraperitoneal injection, M about 0.97 mg/kg (atomic mass of vanadium).
The mark [18] stands for this setting: Example 16, intraperitoneal injection, N about 0.97 mg/kg (atomic mass of vanadium).
[19] abbreviates: Example 17, intraperitoneal injection, O about 0.97 mg/kg (atomic mass of vanadium).
Setting [20] is: Example 18, intraperitoneal injection, P about 0.97 mg/kg (atomic mass of vanadium).
The mark [21] stands for this setting: Example 19, intraperitoneal injection, Q about 0.97 mg/kg (atomic mass of vanadium).
Setting [22] is: Example 20, intraperitoneal injection, R about 0.97 mg/kg (atomic mass of vanadium).

“Also recorded” adds a separate entry of the source. Some results are limits rather than exact numbers.

Consider `[Na+].[Na+].[Na+].[O]=[V]([O-])([O-])[O-]` [Solution A, Sodium orthovanadate], for which, in test [1] (mouse, in vivo, ip), the Analgesic effect entry is “have an analgesic effect” and the “Effective duration compared with aspirin (ASA)” value is recorded as “significantly longer duration of action than that of ASA; also recorded: longer than that of aspirin”. Also, in test [2], the Analgesic effect entry was “found the analgesic effect”. In test [3] (mice), the Minimum effective dose entry is on record as “about 1.0×10^−3 mg/kg”. Also, in test [3] (plateau dose 0.49 mg/kg), the “Blood concentration in mice equivalent to the plateau dose” value is 140 µM.
Consider `O=S(=O)([O-])[O-].[O]=[V+2]` [Solution G1, Vanadyl sulfate], for which, in test [3] (setting [5]), the Duration was greater than 60 min and the “Maximum analgesic intensity (mean)” value is listed as roughly 0.49 g. In test [4], this molecule showed a Duration greater than 60 min and an Onset time of 0 to 15 after injection min.
On to `CC(=O)Oc1ccccc1C(=O)O` [Solution S, acetylsalicylic acid, reference compound], for which the Duration in test [1] (setting [6]) is less than 45 min; in test [1] (setting [7]), less than 45 min; in test [1] (Example 5, intraperitoneal injection, C 1.9 mg/kg (atomic mass of vanadium), S about 250 mg/kg, listed as ASA) it was less than 45 min; in test [1] (setting [8]), less than 45 min; in test [1] (Example 6, intraperitoneal injection, D 1.9 mg/kg, S about 250 mg/kg, listed as ASA) it was less than 45 min; in test [1] (setting [9]), less than 45 min. Also, the Duration was less than 45 min in test [1] (Example 7, intraperitoneal injection, B 0.97 mg/kg (atomic mass of vanadium), S about 250 mg/kg, listed as ASA); less than 45 min in test [1] (setting [10]); less than 45 min in test [1] (Example 8, intraperitoneal injection, E 0.97 mg/kg (atomic mass of vanadium), ASA about 250 mg/kg, listed as ASA); less than 45 min in test [1] (setting [11]); less than 45 min in test [1] (Example 9, intraperitoneal injection, F 0.97 mg/kg (atomic mass of vanadium), ASA about 250 mg/kg, listed as ASA); less than 45 min in test [1] (setting [12]). Besides, the Duration in test [1] (setting [13]), in test [1] (setting [14]), in test [1] (setting [15]), in test [1] (setting [16]), in test [1] (setting [17]) and in test [1] (setting [18]) was less than 45 min each time. Besides, the Duration in test [1] (setting [19]), in test [1] (setting [20]), in test [1] (setting [21]), in test [1] (setting [22]) and in test [4] was less than 45 min in each case. The Onset time in test [1] (setting [6]), in test [1] (setting [7]), in test [1] (setting [8]), in test [1] (setting [9]), in test [1] (setting [10]) and in test [1] (setting [11]) was 15 to 30 after injection min each time. Also, the Onset time was in the range of 15 to 30 after injection min in test [1] (setting [12]); 0 to 15 after injection min in test [1] (setting [13]); 15 to 30 after injection min in test [1] (setting [14]); 0 to 15 after injection min in test [1] (setting [15]); 15 to 30 after injection min in test [1] (setting [16]); 15 to 30 after injection min in test [1] (setting [17]). Besides, the Onset time in test [1] (setting [18]) is given as 15 to 30 after injection min; in test [1] (setting [19]), 15 to 30 after injection min; in test [1] (setting [20]), 15 to 30 after injection min; in test [1] (setting [21]), 15 to 30 after injection min; in test [1] (setting [22]), 15 to 30 after injection min; in test [4], 0 to 15 after injection min. Moreover, the “Time after injection at which the pain threshold returned to the baseline value” in test [1] (intraperitoneal injection, doses as in Examples 3-9) is reported as “about 60 minutes”.
